We go through 3 molecules from US20220009920A1 (GB005, Inc., priority 2020, published 2022).

What all share (experiment): Large panel kinase profiling
What all share (assay type): biochemical
Holding throughout (settings): 1 μM test article, 1 mM ATP

The target of experiment [1] is T1, AURKC/AURC (Homo sapiens, UniProt Q9UQB9).
T1 sequence (Q9UQB9 1-309): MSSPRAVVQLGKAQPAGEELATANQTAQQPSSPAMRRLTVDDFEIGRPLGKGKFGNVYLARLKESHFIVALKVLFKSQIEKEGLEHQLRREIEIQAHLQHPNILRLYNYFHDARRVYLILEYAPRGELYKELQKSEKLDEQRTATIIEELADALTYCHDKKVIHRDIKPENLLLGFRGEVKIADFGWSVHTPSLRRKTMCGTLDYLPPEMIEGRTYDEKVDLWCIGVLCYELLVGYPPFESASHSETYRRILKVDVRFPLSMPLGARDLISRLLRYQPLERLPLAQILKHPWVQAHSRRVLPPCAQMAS
In short, it runs like this:
(§1)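 Single-point profiling at 1 μM test article used 1 mM ATP. Phosphorylation was tracked by sensor fluorescence increase over time at 30° C., with readings each minute at excitation 360 nm and emission 485 nm.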

Experiment [2] addresses T2, CDK16/T (Homo sapiens, UniProt Q00536).
T2 construct: AssayQuant Technologies, Inc. (ran the panel)
In short, it runs like this:
as §1

Experiment [3] addresses T3, GRK7 (Homo sapiens, UniProt Q8WTQ7).
T3 construct: AssayQuant Technologies, Inc. (service provider)
T3 sequence (Q8WTQ7 1-553): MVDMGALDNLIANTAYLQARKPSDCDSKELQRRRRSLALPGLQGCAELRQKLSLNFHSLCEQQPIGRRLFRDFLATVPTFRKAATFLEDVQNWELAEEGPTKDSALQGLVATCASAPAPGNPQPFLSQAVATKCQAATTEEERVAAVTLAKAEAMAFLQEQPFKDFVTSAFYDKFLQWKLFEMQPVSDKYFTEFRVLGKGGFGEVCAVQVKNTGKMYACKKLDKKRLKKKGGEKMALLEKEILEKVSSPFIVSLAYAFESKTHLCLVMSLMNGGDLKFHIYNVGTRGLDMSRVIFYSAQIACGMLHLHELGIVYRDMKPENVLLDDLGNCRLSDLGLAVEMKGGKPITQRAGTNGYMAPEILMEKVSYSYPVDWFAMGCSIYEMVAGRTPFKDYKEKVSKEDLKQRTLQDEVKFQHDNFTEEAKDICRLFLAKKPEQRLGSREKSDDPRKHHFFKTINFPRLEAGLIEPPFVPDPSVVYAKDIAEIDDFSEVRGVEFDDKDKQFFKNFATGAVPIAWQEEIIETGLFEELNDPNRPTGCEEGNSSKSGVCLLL
In short, it runs like this:
as §1

Experiment [4] addresses T4, LATS2 (Homo sapiens, UniProt Q9NRM7).
T4 sequence (Q9NRM7 1-1088): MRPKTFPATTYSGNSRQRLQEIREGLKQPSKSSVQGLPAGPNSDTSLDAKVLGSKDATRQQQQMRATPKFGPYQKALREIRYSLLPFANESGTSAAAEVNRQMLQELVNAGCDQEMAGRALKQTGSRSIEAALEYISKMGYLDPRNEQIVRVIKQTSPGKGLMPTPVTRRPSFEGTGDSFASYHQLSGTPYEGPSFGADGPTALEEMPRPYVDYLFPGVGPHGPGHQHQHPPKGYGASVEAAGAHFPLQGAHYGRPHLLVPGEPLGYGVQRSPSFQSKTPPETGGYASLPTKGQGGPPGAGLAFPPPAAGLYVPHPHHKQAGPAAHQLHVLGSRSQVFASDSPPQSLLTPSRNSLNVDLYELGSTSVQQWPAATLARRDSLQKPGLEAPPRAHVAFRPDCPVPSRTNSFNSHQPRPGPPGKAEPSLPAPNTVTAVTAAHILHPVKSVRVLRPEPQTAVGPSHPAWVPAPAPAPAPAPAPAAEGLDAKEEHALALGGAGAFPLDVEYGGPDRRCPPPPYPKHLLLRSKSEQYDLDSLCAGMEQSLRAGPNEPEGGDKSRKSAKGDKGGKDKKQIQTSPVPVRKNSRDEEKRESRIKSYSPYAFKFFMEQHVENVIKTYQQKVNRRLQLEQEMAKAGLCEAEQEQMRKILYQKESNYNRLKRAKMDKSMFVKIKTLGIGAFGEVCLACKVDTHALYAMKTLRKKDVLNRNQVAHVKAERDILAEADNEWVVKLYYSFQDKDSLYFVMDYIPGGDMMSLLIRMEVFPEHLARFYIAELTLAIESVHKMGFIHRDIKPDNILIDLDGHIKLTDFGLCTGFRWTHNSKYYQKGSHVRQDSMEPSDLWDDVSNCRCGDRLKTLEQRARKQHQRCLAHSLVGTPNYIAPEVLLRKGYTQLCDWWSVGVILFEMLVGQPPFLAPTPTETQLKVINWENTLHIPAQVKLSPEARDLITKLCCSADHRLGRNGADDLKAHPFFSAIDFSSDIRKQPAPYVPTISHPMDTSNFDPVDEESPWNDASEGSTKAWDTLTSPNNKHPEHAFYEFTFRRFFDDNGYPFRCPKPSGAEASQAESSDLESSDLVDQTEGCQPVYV
In short, it runs like this: as §1

The target in experiment [5] is MAP3K1 (Homo sapiens, UniProt Q13233). In short, it runs like this:
as §1

The target in experiment [6] is T5, MINK1 (Homo sapiens, UniProt Q8N4C8).
T5 construct: AssayQuant Technologies, Inc. (assay service)
In short, it runs like this:
as §1

In experiment [7] the target is T6, SRPK2 (Homo sapiens, UniProt P78362).
T6 construct: AssayQuant Technologies, Inc. (contract assay)
In outline:
as §1

T2 sequence (Q00536 whole entry, species assumed): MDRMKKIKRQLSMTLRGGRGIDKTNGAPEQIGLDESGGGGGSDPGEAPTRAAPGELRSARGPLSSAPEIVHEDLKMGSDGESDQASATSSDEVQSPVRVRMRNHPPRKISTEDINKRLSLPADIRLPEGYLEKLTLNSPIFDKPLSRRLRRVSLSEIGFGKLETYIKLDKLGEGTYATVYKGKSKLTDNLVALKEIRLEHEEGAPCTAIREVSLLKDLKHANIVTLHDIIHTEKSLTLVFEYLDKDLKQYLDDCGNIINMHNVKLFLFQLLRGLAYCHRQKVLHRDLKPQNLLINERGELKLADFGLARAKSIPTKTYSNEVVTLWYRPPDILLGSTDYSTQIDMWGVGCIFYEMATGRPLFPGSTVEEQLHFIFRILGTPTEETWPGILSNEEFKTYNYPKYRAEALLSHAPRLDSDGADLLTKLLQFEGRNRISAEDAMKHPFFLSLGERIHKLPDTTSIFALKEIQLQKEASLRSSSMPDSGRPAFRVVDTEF
T2 sequence (Q8ND76 whole entry partner, species assumed): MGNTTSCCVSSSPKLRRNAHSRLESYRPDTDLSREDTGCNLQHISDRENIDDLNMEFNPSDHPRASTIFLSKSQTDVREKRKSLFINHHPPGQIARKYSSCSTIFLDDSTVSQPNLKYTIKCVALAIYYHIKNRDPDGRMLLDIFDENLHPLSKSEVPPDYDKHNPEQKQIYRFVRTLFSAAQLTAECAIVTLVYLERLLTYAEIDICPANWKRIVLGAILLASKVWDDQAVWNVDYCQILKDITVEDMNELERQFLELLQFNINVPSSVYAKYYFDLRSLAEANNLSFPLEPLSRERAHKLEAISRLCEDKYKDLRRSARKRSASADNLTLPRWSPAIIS
T6 sequence (P78362 whole entry, species assumed): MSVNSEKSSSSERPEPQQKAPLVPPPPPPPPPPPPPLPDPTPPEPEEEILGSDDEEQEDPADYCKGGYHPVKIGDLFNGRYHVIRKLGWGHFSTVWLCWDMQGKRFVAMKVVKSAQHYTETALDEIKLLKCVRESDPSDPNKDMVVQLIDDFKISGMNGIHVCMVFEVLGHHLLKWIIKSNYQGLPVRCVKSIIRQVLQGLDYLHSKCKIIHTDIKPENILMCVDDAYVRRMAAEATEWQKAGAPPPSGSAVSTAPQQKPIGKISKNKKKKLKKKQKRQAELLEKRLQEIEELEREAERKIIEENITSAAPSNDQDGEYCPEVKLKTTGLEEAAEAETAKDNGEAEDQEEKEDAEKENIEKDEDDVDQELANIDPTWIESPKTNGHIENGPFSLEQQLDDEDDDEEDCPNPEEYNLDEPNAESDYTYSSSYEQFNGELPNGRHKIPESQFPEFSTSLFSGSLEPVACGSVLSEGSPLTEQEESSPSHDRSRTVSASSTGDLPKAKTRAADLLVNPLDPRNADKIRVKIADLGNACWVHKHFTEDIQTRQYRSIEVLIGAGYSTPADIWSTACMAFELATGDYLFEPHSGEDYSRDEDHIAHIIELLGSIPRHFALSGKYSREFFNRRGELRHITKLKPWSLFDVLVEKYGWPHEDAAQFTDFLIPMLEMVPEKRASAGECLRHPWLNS
T5 sequence (Q8N4C8 whole entry, species assumed): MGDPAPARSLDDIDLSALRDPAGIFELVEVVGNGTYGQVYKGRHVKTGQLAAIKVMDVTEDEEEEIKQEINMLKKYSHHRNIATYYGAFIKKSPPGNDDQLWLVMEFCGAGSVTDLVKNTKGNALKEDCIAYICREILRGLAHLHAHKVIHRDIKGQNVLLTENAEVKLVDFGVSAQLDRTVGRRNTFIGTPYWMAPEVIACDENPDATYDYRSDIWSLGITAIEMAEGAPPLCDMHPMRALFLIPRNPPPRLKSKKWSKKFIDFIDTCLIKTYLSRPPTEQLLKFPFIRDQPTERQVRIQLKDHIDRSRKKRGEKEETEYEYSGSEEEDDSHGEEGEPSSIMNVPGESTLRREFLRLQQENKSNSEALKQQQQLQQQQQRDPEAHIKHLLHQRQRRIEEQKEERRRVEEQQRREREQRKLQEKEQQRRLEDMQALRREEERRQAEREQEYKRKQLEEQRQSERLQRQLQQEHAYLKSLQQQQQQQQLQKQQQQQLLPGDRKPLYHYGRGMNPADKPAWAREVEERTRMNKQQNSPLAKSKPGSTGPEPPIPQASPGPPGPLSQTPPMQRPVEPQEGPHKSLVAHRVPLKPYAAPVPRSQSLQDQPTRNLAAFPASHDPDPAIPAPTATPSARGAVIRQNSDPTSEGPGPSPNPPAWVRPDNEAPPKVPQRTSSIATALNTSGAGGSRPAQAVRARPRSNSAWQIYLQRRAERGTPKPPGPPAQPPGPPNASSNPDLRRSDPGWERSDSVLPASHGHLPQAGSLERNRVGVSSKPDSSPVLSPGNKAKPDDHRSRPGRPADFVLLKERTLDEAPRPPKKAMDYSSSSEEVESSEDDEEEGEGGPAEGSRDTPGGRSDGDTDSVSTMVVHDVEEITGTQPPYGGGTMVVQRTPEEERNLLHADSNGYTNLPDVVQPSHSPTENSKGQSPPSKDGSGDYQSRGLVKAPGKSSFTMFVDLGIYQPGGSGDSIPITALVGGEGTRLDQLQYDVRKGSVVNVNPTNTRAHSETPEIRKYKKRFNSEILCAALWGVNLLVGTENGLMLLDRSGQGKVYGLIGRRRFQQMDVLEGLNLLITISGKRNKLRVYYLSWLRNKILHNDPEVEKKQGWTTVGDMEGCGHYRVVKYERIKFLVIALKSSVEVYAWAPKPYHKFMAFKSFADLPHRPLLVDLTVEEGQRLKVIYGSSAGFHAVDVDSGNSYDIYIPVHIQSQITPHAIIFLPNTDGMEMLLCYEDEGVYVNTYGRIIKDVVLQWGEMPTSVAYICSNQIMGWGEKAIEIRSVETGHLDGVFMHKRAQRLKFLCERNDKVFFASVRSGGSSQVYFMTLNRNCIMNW
Sequence of MAP3K1 (Q13233 whole entry, species assumed): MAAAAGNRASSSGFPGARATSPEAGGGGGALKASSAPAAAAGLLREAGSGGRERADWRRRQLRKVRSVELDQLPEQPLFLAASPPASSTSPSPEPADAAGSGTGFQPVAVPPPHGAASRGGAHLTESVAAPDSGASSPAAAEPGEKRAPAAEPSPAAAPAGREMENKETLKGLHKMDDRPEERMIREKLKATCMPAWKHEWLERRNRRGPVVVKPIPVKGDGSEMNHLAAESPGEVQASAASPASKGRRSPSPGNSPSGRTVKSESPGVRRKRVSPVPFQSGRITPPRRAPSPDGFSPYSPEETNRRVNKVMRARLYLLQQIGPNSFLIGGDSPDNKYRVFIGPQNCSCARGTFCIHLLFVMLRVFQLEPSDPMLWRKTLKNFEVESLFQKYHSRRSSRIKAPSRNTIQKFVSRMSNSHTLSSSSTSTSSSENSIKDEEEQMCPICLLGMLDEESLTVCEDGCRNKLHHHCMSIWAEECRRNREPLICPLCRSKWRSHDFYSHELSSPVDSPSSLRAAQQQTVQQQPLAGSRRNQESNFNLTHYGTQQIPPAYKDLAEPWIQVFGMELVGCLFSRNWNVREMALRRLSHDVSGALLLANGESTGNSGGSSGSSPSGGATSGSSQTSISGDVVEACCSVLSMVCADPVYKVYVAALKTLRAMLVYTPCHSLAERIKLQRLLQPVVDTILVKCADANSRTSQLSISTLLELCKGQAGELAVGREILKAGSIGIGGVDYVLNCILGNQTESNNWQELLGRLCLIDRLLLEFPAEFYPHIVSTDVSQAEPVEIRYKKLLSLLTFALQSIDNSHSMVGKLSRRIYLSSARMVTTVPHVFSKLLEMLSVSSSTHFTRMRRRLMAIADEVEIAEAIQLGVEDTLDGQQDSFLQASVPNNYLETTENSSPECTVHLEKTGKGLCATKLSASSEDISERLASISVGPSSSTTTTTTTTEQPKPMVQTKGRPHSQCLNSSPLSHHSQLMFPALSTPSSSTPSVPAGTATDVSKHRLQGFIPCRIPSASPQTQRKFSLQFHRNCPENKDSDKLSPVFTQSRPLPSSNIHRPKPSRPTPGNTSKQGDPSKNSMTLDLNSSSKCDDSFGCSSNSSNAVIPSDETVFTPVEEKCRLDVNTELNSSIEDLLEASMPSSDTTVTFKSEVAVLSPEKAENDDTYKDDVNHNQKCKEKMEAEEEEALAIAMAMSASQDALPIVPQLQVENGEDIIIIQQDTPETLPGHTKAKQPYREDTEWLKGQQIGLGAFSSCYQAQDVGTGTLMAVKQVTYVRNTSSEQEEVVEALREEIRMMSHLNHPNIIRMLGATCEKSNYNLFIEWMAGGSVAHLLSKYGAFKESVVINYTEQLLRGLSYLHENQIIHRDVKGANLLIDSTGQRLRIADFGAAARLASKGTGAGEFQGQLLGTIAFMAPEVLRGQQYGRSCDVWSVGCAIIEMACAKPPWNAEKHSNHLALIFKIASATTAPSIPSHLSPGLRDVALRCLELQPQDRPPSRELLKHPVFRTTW

Regarding `C=CC(=O)N1CCC[C@@H](c2c(F)cc(C(N)=O)c3[nH]c4c(c23)CCC4)C1` [Compound 10-2, (S)-8-(1-acryloylpiperidin-3-yl)-7-fluoro-1,2,3,4-tetrahydrocyclo-penta[b]indole-5-carboxamide], the inhibition at 1 µM in experiment [1] was 16.7%; in experiment [2], -8.1%; in experiment [3] it was -33%; in experiment [4], -0.7%; in experiment [5], 10.3%; in experiment [6], -18.4%. Further, the inhibition at 1 µM in experiment [7] is -29.1%.

Take `C=CC(=O)N1CCCC(c2c(F)cc(C(N)=O)c3[nH]c4c(c23)CCCCC4)C1` (single isomer, unassigned) [Compound 5-6]: the inhibition at 1 µM in experiment [1] was -8.9%; in experiment [2], 19.7%; in experiment [3], 1.3%; in experiment [4] it was 6.3%; in experiment [5] it was 6.4%; in experiment [6], -2.8%. For the same molecule, the inhibition at 1 µM in experiment [7] is 24.9%.

`C=CC(=O)N1CCC[C@@H](c2c(F)cc(C(N)=O)c3[nH]c4c(c23)CC2(CC4)CC2)C1` [Compound 6-2, (S)-5-(1-acryloylpiperidin-3-yl)-6-fluoro-1,2,4,9-tetrahydrospiro[carbazole-3,1′-cyclopropane]-8-carboxamide]: the inhibition at 1 µM in experiment [1] was -2%; in experiment [2], -3.1%; in experiment [3] it was 10.9%; in experiment [4] it was 1.5%; in experiment [5], -7.9%; in experiment [6] it was -22.7%. Besides, the inhibition at 1 µM in experiment [7] is -60.6%.

For orientation: inhibition means the change of the read-out against control, counted positive when it falls.
